Key:
A549 (NSCLC) = test: Anti-proliferative activity (Cell-Titre luminescence) against A549 non-small cell lung cancer cells; format: cell-based; conditions: 72 h exposure, Cell-Titre luminescent reagent
Description: (§1) The ability of compounds of the invention to inhibit the proliferation of cancer cells representative of non-small cell lung cancer and ovarian cancer (Table 2), pancreatic cancer, colorectal cancer and prostate cancer (Table 3) was assessed. Briefly, a predetermined number of cells as calculated from cell growth assays for each of the cell lines employed were seeded into their respective culture medium (using ATCC culture parameters—http://www.atcc.org) and cultured for 24 h at 37° C. and 5% CO2 in 96-well culture plates. Once attached, each cell line was then exposed to various concentrations of each respective analogue (30, 10, 3, 1, 0.3 and 0.1 μM), cultured for a further 72 h and exposed to Cell-Titre luminescent reagent (100 μL/well) for a further 30 min. Luminescence was captured using an EnVision multilabel reader and the data for each analogue concentration compared against no treatment control. Cell viability was normalised to control (vehicle alone) and dose response curves, and half maximal effective concentration (EC50) values were determined using Graph Pad Prism 6 (nonlinear regression sigmoidal dose-response variable slope).

A2780 (ovarian) = test: Anti-proliferative activity (Cell-Titre luminescence) against A2780 ovarian cancer cells; format: cell-based; conditions: 72 h exposure, Cell-Titre luminescent reagent
Description: as §1

Row | Compound | IC50 (A549 (NSCLC); Homo sapiens, A549, 72 h) [µM] | IC50 (A2780 (ovarian); Homo sapiens, A2780, 72 h) [µM] | further results
1 | OCCNc1nc(NCCc2ccc(F)cc2)nc2ccccc12 [Compound 91, 2-((2-((4-fluorophenethyl)amino)quinazolin-4-yl)amino)ethan-1-ol] | 6.76 | 5.42 | –
2 | COc1ccc(Nc2nc(NCCN3CCN(C)CC3)c3ccccc3n2)cc1 [Compound 44, N^2-(4-methoxyphenyl)-N^4-(2-(4-methylpiperazin-1-yl)ethyl)quinazoline-2,4-diamine] | 5.8 | 2.49 | –
3 | CN1CCN(CCNc2nc(NCc3cccc(C(F)(F)F)c3)nc3ccccc23)CC1 [Compound 46, N^4-(2-(4-methylpiperazin-1-yl)ethyl)-N^2-(3-(trifluoromethyl)benzyl)quinazoline-2,4-diamine] | 3.04 | 2.34 | –
4 | CN1CCN(CCNc2nc(NCCc3ccccc3C(F)(F)F)nc3ccccc23)CC1 [Compound 120, N^4-(2-(4-methylpiperazin-1-yl)ethyl)-N^2-(2-(trifluoromethyl)phenethyl)quinazoline-2,4-diamine] | 5.28 | 1.4 | –
5 | COc1cc(CCNc2nc(NCCN3CCN(C)CC3)c3ccccc3n2)cc(OC)c1OC [Compound 142, N^4-(2-(4-methylpiperazin-1-yl)ethyl)-N^2-(3,4,5-trimethoxyphenethyl)quinazoline-2,4-diamine] | > 30 | > 30 | –
6 | CN1CCN(CCNc2nc(-n3cccc3)nc3ccccc23)CC1 [Compound 17, N-(2-(4-methylpiperazin-1-yl)ethyl)-2-(1H-pyrrol-1-yl)quinazolin-4-amine] | > 30 | 22.7 | –
7 | CN1CCN(CCNc2nc(NCCc3ccc(C(F)(F)F)cc3)nc3ccccc23)CC1 [Compound 52, N^4-(2-(4-methylpiperazin-1-yl)ethyl)-N^2-(4-(trifluoromethyl)phenethyl)quinazoline-2,4-diamine] | 5.6 | 1.19 | –
8 | CN(C)CCNc1nc(NCCc2ccc(F)cc2)nc2ccccc12 [Compound 68, N^4-(2-(dimethylamino)ethyl)-N^2-(4-fluorophenethyl)quinazoline-2,4-diamine] | 6.65 | 3.91 | –
9 | CN1CCN(CCNc2nc(NCCc3ccc(Cl)cc3)nc3ccccc23)CC1 [Compound 130, N^2-(4-chlorophenethyl)-N^4-(2-(4-methylpiperazin-1-yl)ethyl)quinazoline-2,4-diamine] | 10.9 | 2.88 | –
10 | CC(C)C(CNc1nc(-c2ccsc2)nc2ccccc12)N1CCN(C)CC1 (centres unmarked) [Compound 1, N-(3-methyl-2-(4-methylpiperazin-1-yl)butyl)-2-(thiophen-3-yl)quinazolin-4-amine] | 8.06 | 8.59 | –
11 | COc1cccc(CNc2nc(NCCN3CCN(C)CC3)c3ccccc3n2)c1 [Compound 48, N^2-(3-methoxybenzyl)-N^4-(2-(4-methylpiperazin-1-yl)ethyl)quinazoline-2,4-diamine] | 7.4 | 4.52 | –
12 | CN(C)CCCNc1nc(-n2cccc2)nc2ccccc12 [Compound 103, N^1-(2-(1H-pyrrol-1-yl)quinazolin-4-yl)-N^3,N^3-dimethylpropane-1,3-diamine] | 24.1 | 16.5 | –
13 | COc1ccc(CNc2nc(NCCO)c3ccccc3n2)cc1 [Compound 34, 2-((2-((4-methoxybenzyl)amino)quinazolin-4-yl)amino)ethan-1-ol] | 14.1 | 12.8 | –
14 | COc1ccc(Nc2nc(NCCN(C)C)c3ccccc3n2)cc1 [Compound 61, N^4-(2-(dimethylamino)ethyl)-N^2-(4-methoxyphenyl)quinazoline-2,4-diamine] | 11.9 | 7.09 | –
15 | CN(C)CCCNc1nc(-c2ccc[nH]2)nc2ccccc12 [Compound 101, N^1-(2-(1H-pyrrol-2-yl)quinazolin-4-yl)-N^3,N^3-dimethylpropane-1,3-diamine] | 11.6 | 12.5 | –
16 | N^2-(3-methoxyphenyl)-N^4-(2-(4-methylpiperazin-1-yl)ethyl)quinazoline-2,4-diamine [Compound 43] | – | – | IC50 (A549 (NSCLC)): 6.09 µM; IC50 (A2780 (ovarian)): 1.03 µM
17 | CN1CCN(CCNc2nc(NCCc3ccc(N)cc3)nc3ccccc23)CC1 [Compound 133, N^2-(4-aminophenethyl)-N^4-(2-(4-methylpiperazin-1-yl)ethyl)quinazoline-2,4-diamine] | 14.3 | 7.17 | –
18 | CN1CCN(CCNc2nc(-c3ccoc3)nc3ccccc23)CC1 [Compound 15, 2-(furan-3-yl)-N-(2-(4-methylpiperazin-1-yl)ethyl)quinazolin-4-amine] | > 30 | > 30 | –
19 | FC(F)(F)c1cccc(Nc2nc(NCCc3c[nH]cn3)c3ccccc3n2)c1 [Compound 79, N^4-(2-(1H-imidazol-4-yl)ethyl)-N^2-(3-(trifluoromethyl)phenyl)quinazoline-2,4-diamine] | > 30 | 18.9 | –

Row | Compound | IC50 (A549 (NSCLC); Homo sapiens, A549, 72 h) [µM] | IC50 (A2780 (ovarian); Homo sapiens, A2780, 72 h) [µM] | further results
20 | CN(C)CCCNc1nc(Nc2cccc(F)c2)nc2ccccc12 [Compound 72, N^4-(3-(dimethylamino)propyl)-N^2-(3-fluorophenyl)quinazoline-2,4-diamine] | 11.2 | 3.43 | –
21 | CC(C)C(CNc1nc(-c2ccoc2)nc2ccccc12)N1CCN(C)CC1 (centres unmarked) [Compound 7, 2-(furan-3-yl)-N-(3-methyl-2-(4-methylpiperazin-1-yl)butyl)quinazolin-4-amine] | 10.2 | 10.8 | –
22 | COc1ccc(Nc2nc(NCCO)c3ccccc3n2)cc1 [Compound 30, 2-((2-((4-methoxyphenyl)amino)quinazolin-4-yl)amino)ethan-1-ol] | > 30 | > 30 | –
23 | CN1CCN(CCNc2nc(NCCc3ccncc3)nc3ccccc23)CC1 [Compound 146, N^4-(2-(4-methylpiperazin-1-yl)ethyl)-N^2-(2-(pyridin-4-yl)ethyl)quinazoline-2,4-diamine] | 15.7 | 14.1 | –
24 | CN1CCN(CCNc2nc(-c3ccco3)nc3ccccc23)CC1 [Compound 14, 2-(furan-2-yl)-N-(2-(4-methylpiperazin-1-yl)ethyl)quinazolin-4-amine] | > 30 | > 30 | –
25 | OCCCNc1nc(-c2ccc[nH]2)nc2ccccc12 [Compound 109, 3-((2-(1H-pyrrol-2-yl)quinazolin-4-yl)amino)propan-1-ol] | 21.1 | 13 | –
26 | OCCNc1nc(NCc2cccc(C(F)(F)F)c2)nc2ccccc12 [Compound 2, 2-((2-((3-(trifluoromethyl)benzyl)amino)quinazolin-4-yl)amino)ethan-1-ol] | – | – | IC50 (A549 (NSCLC); Homo sapiens, A549): 11.1 µM; IC50 (A2780 (ovarian); Homo sapiens, A2780): 10.7 µM
27 | CN1CCN(CCNc2nc(-c3ccc[nH]3)nc3ccccc23)CC1 [Compound 12, N-(2-(4-methylpiperazin-1-yl)ethyl)-2-(1H-pyrrol-2-yl)quinazolin-4-amine] | 8.24 | 10.2 | –
28 | OCCNc1nc(Nc2cccc(C(F)(F)F)c2)nc2ccccc12 [Compound 27, 2-((2-((3-(trifluoromethyl)phenyl)amino)quinazolin-4-yl)amino)ethan-1-ol] | 2.84 | 6.74 | –
29 | OCCNc1nc(N2CCCC2)nc2ccccc12 [Compound 24, 2-((2-(pyrrolidin-1-yl)quinazolin-4-yl)amino)ethan-1-ol] | > 30 | > 30 | –
30 | CN1CCN(CCNc2nc(NCCc3ccc(C#N)cc3)nc3ccccc23)CC1 [Compound 131, 4-(2-((4-((2-(4-methylpiperazin-1-yl)ethyl)amino)quinazolin-2-yl)amino)ethyl)benzonitrile] | 11.5 | 3 | –
31 | Cc1ccccc1CCNc1nc(NCCN2CCN(C)CC2)c2ccccc2n1 [Compound 122, N^2-(2-methylphenethyl)-N^4-(2-(4-methylpiperazin-1-yl)ethyl)quinazoline-2,4-diamine] | 3.17 | 2.68 | –
32 | OCCNc1nc(NCCc2cccc(F)c2)nc2ccccc12 [Compound 90, 2-((2-((3-fluorophenethyl)amino)quinazolin-4-yl)amino)ethan-1-ol] | 3.87 | 5.19 | –
33 | CN1CCN(CCNc2nc(Nc3ccccc3)nc3ccccc23)CC1 [Compound 40, N^4-(2-(4-methylpiperazin-1-yl)ethyl)-N^2-phenylquinazoline-2,4-diamine] | 6.27 | 4.34 | –
34 | FC(F)(F)c1cccc(CCNc2nc(NCCN3CCOCC3)c3ccccc3n2)c1 [Compound 113, N^4-(2-morpholinoethyl)-N^2-(3-(trifluoromethyl)phenethyl)quinazoline-2,4-diamine] | 8.79 | 2.54 | –
35 | CN(C)CCCNc1nc(-c2ccsc2)nc2ccccc12 [Compound 100, N^1,N^1-dimethyl-N^3-(2-(thiophen-3-yl)quinazolin-4-yl)propane-1,3-diamine] | 19.4 | 11.8 | –
36 | CN1CCN(CCNc2nc(NCCc3cc(F)cc(F)c3)nc3ccccc23)CC1 [Compound 138, N^2-(3,5-difluorophenethyl)-N^4-(2-(4-methylpiperazin-1-yl)ethyl)quinazoline-2,4-diamine] | 6.07 | 1.1 | –
37 | CN1CCN(CCNc2nc(NCCc3ccccc3)nc3ccccc23)CC1 [Compound 50, N^4-(2-(4-methylpiperazin-1-yl)ethyl)-N^2-phenethylquinazoline-2,4-diamine] | 5.3 | 7.68 | –

Source: patent US20230339866A1, “Quinazoline compounds and the use thereof in the treatment of cancer” (TROBIO THERAPEUTICS PTY LTD, priority 2020, published 2023)
